{"source": "patent US20030124524A1", "about": "“Screening assays for identifying modulators of the inflammatory or immune response” (priority 2000, published 2003)", "origin": "cited, not measured here", "note": "Read-outs that look alike come from different tables or passages of the source.", "data": [{"substance": "rhIL-1ra: recombinant human IL-1 receptor antagonist protein, useful for treatment of rheumatoid arthritis in a genotype-dependent manner", "values": [{"measurement": "response to treatment of rheumatoid arthritis", "setting": "patients carrying at least one IL-1A (+4845) allele 2 (and alleles in linkage disequilibrium)", "value": "substantial and significant response"}, {"measurement": "response to treatment of rheumatoid arthritis", "setting": "patients homozygous for IL-1A (+4845) allele 1", "value": "response no better than placebo"}]}]}
